{
  "source": "patent US20240018592A1",
  "about": "“METHODS OF ASSESSING THE THERAPEUTIC ACTIVITY OF AGENTS FOR THE TREATMENT OF IMMUNE DISORDERS” (Technion Research & Development Foundation Limited, priority 2020, published 2024)",
  "type_in_all_cases": "in vivo, human",
  "key": {"[1]": {"assay": "Infliximab drug levels and anti-drug antibodies (ADA) after first treatment", "details": "drug level, mean ± SEM, levels >20 taken as 20", "method": "(§1) Sample collection: The cohort consisted of 24 Crohn's disease (CD) patients who received Infliximab anti-TNF treatment at the gastroenterology department of the Rambam Health Care Campus (RHCC) and met the study inclusion criteria as follows: 1) Adequately documented active luminal CD, as phenotyped by a gastroenterologist with expertise in IBD; 2) Documented decision to initiate full infliximab induction regimen with 5 mg/kg induction dosing (i.e. at weeks 0, 2, 6). Patients that had past exposure to Infliximab, Adalimumab or Vedolizumab, or patients who had active infection including febrile diseases or intra-abdominal or perianal abscess were excluded.\n(§2) Patient samples were obtained at three time points: at baseline, before infliximab treatment, and two and fourteen weeks post first treatment and assayed for gene expression microarray data."}, "[2]": {"system": "immune age (IMM-AGE) score of peripheral blood", "assay": "Immune-age score from whole blood gene expression (Affymetrix Clariom S, single-sample GSEA) before and after infliximab", "from_the_text": "as §2\nBlood transcriptome processing and analysis: Whole blood was preserved in PAXgene Blood RNA tubes (PreAnalytiX). RNA was extracted and assayed using Affymetrix Clariom S chips (Thermo Fisher Scientific). The raw gene array data were processed to obtain a log 2 expression value for each gene probe set using the RMA (robust multichip average) method available in the affy R package. Probe set annotation was performed using affycoretools and clariomshumantranscriptcluster.db packages in R. Data were further adjusted for batch effect using empirical Bayes framework applied by the Combat R package.\nUsing a high-resolution longitudinal gene expression dataset from peripheral blood samples of 24 CD patients, 15 and 9 responding and non-responding patients, at three time points: pretreatment, 2 and 14 weeks post first treatment, the present inventors evaluated the samples' immune-age score reflecting the samples' position along the high dimensional IMM-AGE trajectory. To quantify the immune age of the CD patients, they used normalized gene expression measurements of the following genes: ABLIM1, AFF3, BACH2, BCL11A, BIRC3, BLNK, BTLA, C11orf31, C6orf48, CCR6, CCR7, CD200, CD22, CD27, CD28, CDCA7L, CHMP7, CR2, DPP4, E2F5, EPHX2, FAIM3, FAM102A, FAM134, FCRL1, FCRL2. HOOK1, HVCN1, IL6ST, IMPDH2, KIAA0748, LEF1, LRRN3, MYC, NELL2, NT5E, P2RX5, PAQR8, PLAG1, PTPRK, RCAN3, SCML1, SLC7A6, SNX9, STRBP, SUSD3, TCF4, TCF7, TCL1A, TCTN1, UXT, VPREB3, ZNF101, ZNF671, CRTC3, STAP1 and HLA-DOB.\nThe immune-age of the CD patients was estimated by using single-sample GSEA algorithm (Barbie D A et al. Nature 462, 108-112 (2009)). An external IBD (CD and UC) disease specific molecular response axis was used to describe the patients' dynamics by generating a PCA on differential gene expression between active and in-active disease states treated with variety of treatment regimens (using public data, GSE94648)."}, "[3]": {"system": "Crohn's disease (CD) patients", "assay": "Infliximab induction treatment of Crohn's disease patients: clinical and laboratory outcome (CRP, albumin, HBI, clinical response, response classification)", "details": "for HBI 14 w post first treatment: Harvey-Bradshaw Index; for HBI 14 w post first treatment / Albumin 2 w post first treatment / Albumin 14 w post first treatment / CRP 2 w post first treatment / CRP 14 w post first treatment: mean ± SEM", "method": "as §1, §2\nPatient response classification was defined by decision algorithm, as described previously (Gaujoux et al. 2018). Briefly, patients were classified as responders based on clinical remission, which was defined as cessation of diarrhea and abdominal cramping or, in the cases of patients with fistulas, cessation of fistula drainage and complete closure of all draining fistulas at week 14, coupled with a decision of the treating physician to continue IFX therapy at the current dosing and schedule. Patients that were defined as partial responders, classification was determined by the decision algorithm that included the following hierarchical rules: 1) steroid dependency at week fourteen; 2) biomarker dynamics (Calprotectin and CRP) and 3) response according to clinical state at week 26.\nApplying the decision algorithm and exclusion criteria, yielded a final study cohort of 15 and 9 responding and non-responding patients, respectively."}, "[4]": {"details": "of 24 CD patients, classified by decision algorithm at week 14"}},
  "data": [
    {"substance": "Infliximab [IFX]", "values": [
      {"measurement": "IFX 2 w post first treatment", "setting": "[1]; IFX non-responders (n = 9)", "value": "8.9 ± 1.9", "unit": "ng/µL"},
      {"measurement": "IFX 14 w post first treatment", "setting": "[1]; IFX non-responders (n = 9)", "value": "0.9 ± 0.3", "unit": "ng/µL"},
      {"measurement": "IFX 2 w post first treatment", "setting": "[1]; IFX responders (n = 15)", "value": "10.7 ± 1.8", "unit": "ng/µL"},
      {"measurement": "IFX 14 w post first treatment", "setting": "[1]; IFX responders (n = 15)", "value": "3.3 ± 0.5", "unit": "ng/µL"},
      {"measurement": "shift of patients' immune age", "setting": "[2]; cohort of 24 CD patients treated with anti-TNF (Infliximab)", "value": "dramatically shift patients' immune age"},
      {"measurement": "immune age dynamics in responders", "setting": "[2]; responders versus non-responders, post treatment relative to baseline", "value": "shifted back their immune age and presented a significant drop"},
      {"measurement": "immune age score in responders, early", "setting": "[2]; responders, 2 weeks post treatment", "value": "significant reduced immune age score"},
      {"measurement": "HBI 14 w post first treatment", "setting": "[3]; IFX non-responders (n = 9)", "value": "5 ± 2.2"},
      {"measurement": "HBI 14 w post first treatment", "setting": "[3]; IFX responders (n = 15)", "value": "0.8 ± 0.3"},
      {"measurement": "Albumin 2 w post first treatment", "setting": "[3]; IFX non-responders (n = 9)", "value": "3.3 ± 0.3"},
      {"measurement": "Albumin 14 w post first treatment", "setting": "[3]; IFX non-responders (n = 9)", "value": "3.1 ± 0.2"},
      {"measurement": "CRP 2 w post first treatment", "setting": "[3]; IFX non-responders (n = 9)", "value": "8.8 ± 3.2"},
      {"measurement": "CRP 14 w post first treatment", "setting": "[3]; IFX non-responders (n = 9)", "value": "28.0 ± 13.6"},
      {"measurement": "Albumin 2 w post first treatment", "setting": "[3]; IFX responders (n = 15)", "value": "3.7 ± 0.1"},
      {"measurement": "Albumin 14 w post first treatment", "setting": "[3]; IFX responders (n = 15)", "value": "4.0 ± 0.1"},
      {"measurement": "CRP 14 w post first treatment", "setting": "[3]; IFX responders (n = 15)", "value": "5.1 ± 1.8"},
      {"measurement": "CRP 2 w post first treatment", "setting": "[3]; IFX responders (n = 15), 5 mg/kg induction", "value": "2.7 ± 0.7"},
      {"measurement": "non-responding patients", "setting": "[3]; [4]", "value": 9, "unit": "patients"},
      {"measurement": "responding patients", "setting": "[3]; [4]", "value": 15, "unit": "patients"}
    ]}
  ]
}
